Experimental data reported in patent US20130157261A1, “Compositions and Methods for Quantitative Histology, Calibration of Images in Fluorescence Microscopy, and ddTUNEL Analyses” (The Methodist Hospital Research Institute, priority 2011, published 2013).

Legend:
[1] = system: normal human astrocytes (NHA)
Protocol: (§1) Normal human astrocytes (NHA) were obtained from Lonza (Walkersville, Md., USA) and grown subject to their recommendations. NHA were grown to confluency in Astrocyte Cell Basal Medium supplemented with 3% FBS, Glutamine, Insulin, fhEGF, GA-1000 and ascorbic acid in 16-well Lab-Tek slide chambers (Nalge Nunc, Rochester, N.Y., USA), in a total volume of 240 μL.
NHA were incubated for 1 hour with probes before fixation. Fixation in buffered paraformaldehyde (PFA) was performed in two stages. Firstly, a […] of ice-cold 8% PFA was added to each well, then gently aspirated and the wells were twice washed with ice-cold 2% PFA and then allowed to completely fix at 4° C. After fixation, cells were washed twice in 1×PBS (Thermo Fisher Scientific, Rockford, Ill., USA). The tanks were then removed from the slides, the well area covered with Fluoromount-G (SouthernBiotech, Ill., USA), cover-slipped and sealed with nail varnish.
DNA was visualized using 1 μM Hoechst 33258 (Cat. No. H1398), mitochondrial membrane potential with 500 nM Mitotracker® Red (Dagda et al., 2009) (Cat. No. M22425), hydrogen peroxide using 5 μM H2DCFAM (Whiteman et al., 2009; Setsukinai et al., 2003) (Cat. No. D399), mitochondrial superoxide generation with 5 μM MitoSOX™ Red (Abramov et al., 2010) (Cat. No. M36008), HO. was assayed using 5 μM hydroxyphenyl fluorescein (Setsukinai et al., 2003) (HPF) (Cat. No. H36004), with reagents obtained from Molecular Probes (Eugene, Oreg., USA).
(§2) 3% FCS was present in the NHA medium throughout the time-course. To generate the time-course shown in FIG. 17A and FIG. 17B, NHA were exposed to Mitotracker, H2DCFAM and Hoechst at t=0.

[2] = system: normal human astrocytes (NHA); settings: 14.4 μM thimerosal, 1 hr, vs control (FIG. 21)
Protocol: as §1
(§3) Fixed cells were permeabilized using 1×PBS with 0.1% Triton X-100®. Hydrazine reactive aldehyde/ketones were labeled using 225 μM Biotin-XX hydrazide (Hensley, 2009) (Cat. No. B2600) and visualized using Texas Red-Avidin (Cat. No. A820). The activity of Caspase-3 in fixed, 0.1% Triton-permeabilized cells was measured using the R110-EnzChek® Assay Kit (Molecular Probes, Cat. No. E13184), and incubating cells for 1 h at 37° C. (Scott et al., 2003).
as §2

[3] = system: normal human astrocytes (NHA); remark: listed apart in the source
Excerpt: as §2

[4] = system: Caspase-3; settings: NHA, 14.4 μM thimerosal, 1 hr, vs control
Protocol: as §3, §2

[5] = system: normal human astrocytes (NHA); settings: 14.4 μM thimerosal
Protocol: NHA were incubated for 1 hour with probes before fixation. Fixation in buffered paraformaldehyde (PFA) was performed in two stages. Firstly, a 50-4 aliquot of ice-cold 8% PFA was added to each well, then gently aspirated and the wells were twice washed with ice-cold 2% PFA and then allowed to completely fix at 4° C. After fixation, cells were washed twice in 1×PBS (Thermo Fisher Scientific, Rockford, Ill., USA). The tanks were then removed from the slides, the well area covered with Fluoromount-G (SouthernBiotech, Ill., USA), cover-slipped and sealed with nail varnish.

[6] = 14.4 μM thimerosal, 1 hr, vs control (FIG. 21)

## C[CH2][Hg][S]c1ccccc1C(=O)[O-].[Na+] [Thimerosal]
[1]; 14.4 μM thimerosal, 1 hr
  increase in HO. greater than the increase in superoxide generation: ≈ 80%
  increase in superoxide generation per cell: 90%
[1]; 14.4 μM thimerosal, 1 hr, deconvolution of signals
  more HO. generation per superoxide: 60%
[1]; [6]
  increase in HO.: 300%
  increase in internal mitochondrial steady state level of superoxide: ≈ 70%
[1]; 60 min, 0-14.4 μM
  thimerosal concentration at which a loss of mitochondrial signal and of DCF was observed: > 7.2 µM
[2]
  increase in cellular hydrazine reactive carbonyls (matches superoxide increase): ≈ 70%
[3]; [6]
  increase in 3′OH DNA nicks: 300%
  increase in levels of mitochondrial DNA breaks: 240%
  increase in levels of oxidized bases/apurinic or apyrimidinic sites: 460%
[3]; Thimerosal treatment
  increase in levels of oxidant damaged mitochondrial DNA bases: five-fold
[4]
  increase in Caspase-3 activity: five-fold
[5]
  time at which levels of cellular DCF began to fall: > 40 min
[5]; 60 min, fit of intensity profiles
  amount of ROS (DCF) generated by mitochondria vs control mitochondria: four times
[5]; 60 min, vs control
  increase in ROS (DCF): two-fold
[5]; 1 hr, vs control
  increase in steady-state production of reactive oxidants (H2DCF-AM): 200%
